# Results as given in patent US20070049564A1 (Wyeth, priority 2005, published 2007).
# Like-named read-outs stand apart in the source and are kept apart here.
# Columns and labels:
# E. coli GC 3226 = assay: MIC, broth microdilution; details: Escherichia coli
# E. faecalis GC 4555 = assay: MIC, broth microdilution; details: Enterococcus faecalis
# E. coli GC 2271 = assay: MIC, broth microdilution; details: Escherichia coli
# S. aureus GC 1131 = assay: MIC, broth microdilution; details: Staphylococcus aureus
# E. coli GC 2236 = assay: MIC, broth microdilution; details: Escherichia coli
# S. aureus GC 6335 = assay: MIC, broth microdilution; details: Staphylococcus aureus
# E. coli GC 4559 = assay: MIC, broth microdilution; details: Escherichia coli
# E. coli GC 2234 = assay: MIC, broth microdilution; details: Escherichia coli
# E. faecalis GC 2265 = assay: MIC, broth microdilution; details: Enterococcus faecalis
# E. coli GC 2232 = assay: MIC, broth microdilution; details: Escherichia coli
# Staph. aureus Smith = assay: In vivo activity (oral, iv; ED50) against Staph. aureus Smith in mice
# Procedure: Representative examples of compounds of Formula I were tested for the oral efficacy using S. aureus Smith in mice.
# E. coli GC 2272 = assay: MIC, broth microdilution; details: Escherichia coli
# E. coli GC 2203 = assay: MIC, broth microdilution; details: Escherichia coli
# Procedure: (§1) Antimicrobial susceptibility testing. The in vitro activities of the antibiotics are determined by the broth microdilution method as recommended by the National Committee for Clinical Laboratory Standards (NCCLS) (1). Mueller-Hinton II broth (MHBII)(BBL Cockeysville, Md.) is the medium employed in the testing procedures. Microtiter plates containing serial dilutions of each antimicrobial agent are inoculated with each organism to yield the appropriate density (10^5 CFU/ml) in a 100 μl final volume. The plates are incubated for 18-22 hours at 35° C. in ambient air. […] Standard Pharmacological Test Procedures
# (§2) Presented in Tables I-XIII are representative compounds of Formula I which were evaluated against a panel of 40 selected gram-positive and gram-negative bacteria strains by pre-incubation in water, mouse serum or human serum. Representative compounds were first incubated in mouse serum for an hour prior to the in vitro testing against a panel of selected gram-positive and gram-negative bacteria strains. All compounds were also pre-incubated in water for an hour prior to testing as control. Representative compounds of Formula I were incubated in human serum prior to MIC determination.
# P. aeruginosa GC 2214 = assay: MIC, broth microdilution; details: Pseudomonas aeruginosa
# S. epidermidis GC 4935 = assay: MIC, broth microdilution; details: Staphylococcus epidermidis
# Procedure: (§3) Antimicrobial susceptibility testing. The in vitro activities of the antibiotics are determined by the broth microdilution method as recommended by the National Committee for Clinical Laboratory Standards (NCCLS) (1). Mueller-Hinton II broth (MHBII)(BBL Cockeysville, Md.) is the medium employed in the testing procedures. Microtiter plates containing serial dilutions of each antimicrobial agent are inoculated with each organism to yield the appropriate density (10^5 CFU/ml) in a 100 μl final volume. The plates are incubated for 18-22 hours at 35° C. in ambient air.
# (§4) Representative compounds were first incubated in mouse serum for an hour prior to the in vitro testing against a panel of selected gram-positive and gram-negative bacteria strains. All compounds were also pre-incubated in water for an hour prior to testing as control. Representative compounds of Formula I were incubated in human serum prior to MIC determination.
# S. pyogenes GC 4563 = assay: MIC, broth microdilution; details: Streptococcus pyogenes
# Procedure: as §1, §2
# S. pneumoniae* GC 4465 = assay: MIC, broth microdilution; details: Streptococcus pneumoniae
# S. agalactiae GC 4564 = assay: MIC, broth microdilution; details: Streptococcus agalactiae
# Procedure: as §3, §4
# S. pneumoniae+ GC 4465 = assay: MIC, broth microdilution; details: Streptococcus pneumoniae
# E. faecalis GC 2267 = assay: MIC, broth microdilution; details: Enterococcus faecalis
# Procedure: as §3
# Representative compounds were first incubated in mouse serum for an hour prior to the in vitro testing against a panel of selected gram-positive and gram-negative bacteria strains. All compounds were also pre-incubated in water for an hour prior to testing as control.
# [1] = read-out: MINIMAL INHIBITORY CONCENTRATION MIC, Human Serum
# [2] = read-out: MINIMAL INHIBITORY CONCENTRATION MIC, Mouse Serum
# [3] = read-out: MINIMAL INHIBITORY CONCENTRATION MIC, Water
smiles,measurement,setting,value
"CCC(=O)OCOC(=O)N(CC(=O)Nc1cc(N(C)C)c2c(c1O)C(=O)C1=C(O)[C@]3(O)C(=O)C(C(N)=O)=C(O)[C@@H](N(C)C)[C@@H]3C[C@@H]1C2)C(C)(C)C [Example 49, ({[(2-{[(5aR,6aS,7S,10aS)-9-(aminocarbonyl)-4,7-bis(dimethylamino)-1,8,10a,11-tetrahydroxy-10,12-dioxo-5,5a,6,6a,7,10,10a,12-octahydrotetracen-2-yl]amino}-2-oxoethyl)(tert-butyl)amino]carbonyl}oxy)methyl propionate]",MIC,"E. coli GC 3226; GC3226, read-out: MINIMAL INHIBITORY CONCENTRATION MIC, Human Serum",8 µg/mL
same,MIC,"E. coli GC 3226; GC3226, read-out: MINIMAL INHIBITORY CONCENTRATION MIC, Mouse Serum",0.5 µg/mL
same,MIC,"E. coli GC 3226; GC3226, read-out: MINIMAL INHIBITORY CONCENTRATION MIC, Water",16 µg/mL
same,MIC,"E. faecalis GC 4555; GC4555, read-out: MINIMAL INHIBITORY CONCENTRATION MIC, Human Serum",0.5 µg/mL
same,MIC,"E. faecalis GC 4555; GC4555, read-out: MINIMAL INHIBITORY CONCENTRATION MIC, Mouse Serum",0.25 µg/mL
same,MIC,"E. faecalis GC 4555; GC4555, read-out: MINIMAL INHIBITORY CONCENTRATION MIC, Water",4 µg/mL
same,MIC,"E. coli GC 2271; GC2271, read-out: MINIMAL INHIBITORY CONCENTRATION MIC, Human Serum",4 µg/mL
same,MIC,"E. coli GC 2271; GC2271, read-out: MINIMAL INHIBITORY CONCENTRATION MIC, Mouse Serum",0.25 µg/mL
same,MIC,"E. coli GC 2271; GC2271, read-out: MINIMAL INHIBITORY CONCENTRATION MIC, Water",8 µg/mL
same,MIC,"S. aureus GC 1131; GC1131, read-out: MINIMAL INHIBITORY CONCENTRATION MIC, Human Serum",0.5 µg/mL
same,MIC,"S. aureus GC 1131; GC1131, read-out: MINIMAL INHIBITORY CONCENTRATION MIC, Mouse Serum",0.5 µg/mL
same,MIC,"S. aureus GC 1131; GC1131, read-out: MINIMAL INHIBITORY CONCENTRATION MIC, Water",0.5 µg/mL
same,MIC,"E. coli GC 2236; GC2236, read-out: MINIMAL INHIBITORY CONCENTRATION MIC, Human Serum",4 µg/mL
same,MIC,"E. coli GC 2236; GC2236, read-out: MINIMAL INHIBITORY CONCENTRATION MIC, Mouse Serum",0.5 µg/mL
same,MIC,"E. coli GC 2236; GC2236, read-out: MINIMAL INHIBITORY CONCENTRATION MIC, Water",16 µg/mL
same,MIC,"S. aureus GC 6335; GC6335, read-out: MINIMAL INHIBITORY CONCENTRATION MIC, Human Serum",1 µg/mL
same,MIC,"S. aureus GC 6335; GC6335, read-out: MINIMAL INHIBITORY CONCENTRATION MIC, Mouse Serum",1 µg/mL
same,MIC,"S. aureus GC 6335; GC6335, read-out: MINIMAL INHIBITORY CONCENTRATION MIC, Water",2 µg/mL
same,MIC,"E. coli GC 4559; GC4559, read-out: MINIMAL INHIBITORY CONCENTRATION MIC, Human Serum",8 µg/mL
same,MIC,"E. coli GC 4559; GC4559, read-out: MINIMAL INHIBITORY CONCENTRATION MIC, Mouse Serum",0.5 µg/mL
same,MIC,"E. coli GC 4559; GC4559, read-out: MINIMAL INHIBITORY CONCENTRATION MIC, Water",16 µg/mL
same,MIC,"E. coli GC 2234; GC2234, read-out: MINIMAL INHIBITORY CONCENTRATION MIC, Human Serum",4 µg/mL
same,MIC,"E. coli GC 2234; GC2234, read-out: MINIMAL INHIBITORY CONCENTRATION MIC, Mouse Serum",0.25 µg/mL
same,MIC,"E. coli GC 2234; GC2234, read-out: MINIMAL INHIBITORY CONCENTRATION MIC, Water",16 µg/mL
same,MIC,"E. faecalis GC 2265; GC2265, read-out: MINIMAL INHIBITORY CONCENTRATION MIC, Human Serum",1 µg/mL
same,MIC,"E. faecalis GC 2265; GC2265, read-out: MINIMAL INHIBITORY CONCENTRATION MIC, Mouse Serum",0.5 µg/mL
same,MIC,"E. faecalis GC 2265; GC2265, read-out: MINIMAL INHIBITORY CONCENTRATION MIC, Water",2 µg/mL
same,MIC,"E. coli GC 2232; GC2232, read-out: MINIMAL INHIBITORY CONCENTRATION MIC, Human Serum",4 µg/mL
same,MIC,"E. coli GC 2232; GC2232, read-out: MINIMAL INHIBITORY CONCENTRATION MIC, Mouse Serum",0.5 µg/mL
same,MIC,"E. coli GC 2232; GC2232, read-out: MINIMAL INHIBITORY CONCENTRATION MIC, Water",16 µg/mL
same,ED50,"Staph. aureus Smith; Staphylococcus aureus, in Mus musculus, iv, read-out: ED50 SIV (Staph aureus Smith)",0.92 mg/kg
same,ED50,"Staph. aureus Smith; Staphylococcus aureus, in Mus musculus, po, read-out: ED50 SOD (Staph aureus Smith)",16 mg/kg
same,ED50,"Staph. aureus Smith; Staphylococcus aureus, in Mus musculus, po, read-out: ED50 Staph Smith SOD",16.6 mg/kg
same,ED50,"Staph. aureus Smith; iv, read-out: ED50 Staph Smith SIV",0.92 mg/kg
same,MIC,"E. coli GC 2272; GC2272, read-out: MINIMAL INHIBITORY CONCENTRATION MIC, Human Serum",2 µg/mL
same,MIC,"E. coli GC 2272; GC2272, read-out: MINIMAL INHIBITORY CONCENTRATION MIC, Mouse Serum",0.5 µg/mL
same,MIC,"E. coli GC 2272; GC2272, read-out: MINIMAL INHIBITORY CONCENTRATION MIC, Water",8 µg/mL
same,MIC,"E. coli GC 2203; GC2203, read-out: MINIMAL INHIBITORY CONCENTRATION MIC, Human Serum",4 µg/mL
same,MIC,"E. coli GC 2203; GC2203, read-out: MINIMAL INHIBITORY CONCENTRATION MIC, Mouse Serum",0.25 µg/mL
same,MIC,"E. coli GC 2203; GC2203, read-out: MINIMAL INHIBITORY CONCENTRATION MIC, Water",8 µg/mL
same,MIC,"P. aeruginosa GC 2214; GC2214, read-out: MINIMAL INHIBITORY CONCENTRATION MIC, Human Serum",> 64 µg/mL
same,MIC,"P. aeruginosa GC 2214; GC2214, read-out: MINIMAL INHIBITORY CONCENTRATION MIC, Mouse Serum",32 µg/mL
same,MIC,"P. aeruginosa GC 2214; GC2214, read-out: MINIMAL INHIBITORY CONCENTRATION MIC, Water",> 64 µg/mL
same,MIC,"S. epidermidis GC 4935; GC4935, read-out: MINIMAL INHIBITORY CONCENTRATION MIC, Human Serum",1 µg/mL
same,MIC,"S. epidermidis GC 4935; GC4935, read-out: MINIMAL INHIBITORY CONCENTRATION MIC, Mouse Serum",1 µg/mL
same,MIC,"S. epidermidis GC 4935; GC4935, read-out: MINIMAL INHIBITORY CONCENTRATION MIC, Water",2 µg/mL
same,MIC,"S. pyogenes GC 4563; GC4563, read-out: MINIMAL INHIBITORY CONCENTRATION MIC, Human Serum",0.12 µg/mL
same,MIC,"S. pyogenes GC 4563; GC4563, read-out: MINIMAL INHIBITORY CONCENTRATION MIC, Mouse Serum",0.12 µg/mL
same,MIC,"S. pyogenes GC 4563; GC4563, read-out: MINIMAL INHIBITORY CONCENTRATION MIC, Water",0.12 µg/mL
same,MIC,S. pneumoniae* GC 4465; [1],0.12 µg/mL
same,MIC,S. pneumoniae* GC 4465; [2],0.12 µg/mL
same,MIC,S. pneumoniae* GC 4465; [3],0.12 µg/mL
same,MIC,"S. agalactiae GC 4564; GC4564, read-out: MINIMAL INHIBITORY CONCENTRATION MIC, Human Serum",0.12 µg/mL
same,MIC,"S. agalactiae GC 4564; GC4564, read-out: MINIMAL INHIBITORY CONCENTRATION MIC, Mouse Serum",0.12 µg/mL
same,MIC,"S. agalactiae GC 4564; GC4564, read-out: MINIMAL INHIBITORY CONCENTRATION MIC, Water",0.25 µg/mL
same,MIC,S. pneumoniae+ GC 4465; [1],1 µg/mL
same,MIC,S. pneumoniae+ GC 4465; [2],1 µg/mL
same,MIC,S. pneumoniae+ GC 4465; [3],1 µg/mL
same,MIC,"E. faecalis GC 2267; GC2267, read-out: MINIMAL INHIBITORY CONCENTRATION MIC, Human Serum",1 µg/mL
same,MIC,"E. faecalis GC 2267; GC2267, read-out: MINIMAL INHIBITORY CONCENTRATION MIC, Mouse Serum",0.5 µg/mL
same,MIC,"E. faecalis GC 2267; GC2267, read-out: MINIMAL INHIBITORY CONCENTRATION MIC, Water",4 µg/mL
